Columns and labels:
[1] = target: T1, Human recombinant MAO-B (hMAO-B) (Homo sapiens, UniProt P27338); assay: MAO-B enzyme assay (Amplex Red, resorufin fluorescence); format: biochemical; details: for Selectivity Index (SI): IC50 (MAO-A)/IC50 (MAO-B); for IC50: five doses 10-0.001 µM, triplicate; for % Inhibition of MAO-B at 10 µM / inhibition at 10 µM: single dose 10 µM
T1 construct: purchased Sigma Aldrich; host or cells: insect cells
T1 sequence (P27338 1-520): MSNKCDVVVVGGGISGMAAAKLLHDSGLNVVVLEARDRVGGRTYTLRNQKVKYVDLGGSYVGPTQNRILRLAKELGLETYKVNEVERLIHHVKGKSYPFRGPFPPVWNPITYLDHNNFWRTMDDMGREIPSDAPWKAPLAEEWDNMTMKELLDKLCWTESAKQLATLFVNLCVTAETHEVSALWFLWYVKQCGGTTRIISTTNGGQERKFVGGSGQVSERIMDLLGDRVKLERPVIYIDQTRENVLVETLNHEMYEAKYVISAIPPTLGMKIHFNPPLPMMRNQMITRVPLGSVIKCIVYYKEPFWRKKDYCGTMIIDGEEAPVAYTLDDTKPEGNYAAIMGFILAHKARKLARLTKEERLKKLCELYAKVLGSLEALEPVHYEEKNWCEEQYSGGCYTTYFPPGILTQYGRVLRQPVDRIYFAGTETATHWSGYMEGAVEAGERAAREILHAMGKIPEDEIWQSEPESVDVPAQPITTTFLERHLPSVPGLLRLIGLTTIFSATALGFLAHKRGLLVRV
Method: Biological evaluation of the synthesized melatonin derivatives over both MAO-A and MAO-B was performed as reported previously. A detailed description of the protocol is in the Supplementary Materials.
First, the synthesized melatonin analogues (3a–x) were biologically evaluated over an MAO-B recombinant enzyme. The experiment was performed using Amplex® Red reagent technology. This technology offers quantitative enzyme activity sensitive detection, a wider dynamic range, and fluorescence emission outside the range of compound autofluorescence (if any). The Amplex® Red reagent is a colorless substrate that reacts with H2O2 in a 1:1 stoichiometry to produce a highly fluorescent resorufin; therefore, the induced inhibitory effects of the melatonin analogues over MAO-B were examined via spectrophotometry where the fluorescence rate of resorufin dye formation was measured.
Accordingly, compounds 3n, 3r, and 3u–w were further tested to determine their IC50 values over MAO-B in triplicate from the dose–response inhibition curves using Sigma-Plot software 13.0.
6. Materials and methods of monoamine oxidase (MAO) enzyme assay
The inhibitory activity of MAO-A, B enzyme of the compounds was evaluated based on previously described method. The MAO activity was measured in relative fluorescence units (RFU) evoked by peroxidase-catalyzed oxidation of Amplex Red® to resorufin, in which H2O2 generated by MAO reaction was used as the […]. Human recombinant MAO-A (hMAO-A) and MAO-B (hMAO-B) enzyme expressed in insect cells were obtained from Sigma Aldrich. The 2 μL of test compound in DMSO (final concentration: 1 nM – 10 μM) was treated with 98 μL of hMAO enzyme solution in 50 mM sodium phosphate buffer (pH 7.4, final protein amounts: ~1.25 μg protein/well for MAO-A and ~2.5 μg protein/well for MAO -B) on 96-well black plate and incubated for 15 min at 37 °C. Then 100 μL of reaction working solution which is mixed solution of 400 μM Amplex Red® (Cayman, final concentration: 200 μM), 2 U/mL horseradish peroxidase ( Sigma-Aldrich, final concentration: 1 U/mL) and 2 mM substrate ( p-tyramine for MAO -A, benzylamine for MAO -B, Sigma-Aldrich, final concentration: 1 mM) in 50 mM sodium phosphate buffer (pH 7.4) were added and incubated for 20 min at 37 °C in the dark. The fluorescent intensity was quantified using a microplate reader (SpectraMax®i3, Molecular Device) with an excitation at 545 nm and an emission at 590 nm. The 50% inhibitory concentrations (IC50) of compounds were determined as the mean ± S.E.M. in triplicate from the dose-response inhibition curves using SigmaPlot® 13.0. […]

PC12 cells [2] = assay: Cytotoxicity in PC12 cells (MTT assay); format: cell-based, rat; details: 10 and 30 μM, 24 h
Method: (§1) Control cells were incubated in an equivalent volume of DMSO to a final concentration of 0.3%. Neuroprotective effects of the tested compounds on the toxicity induced by 6-OHDA or rotenone in PC12 cells were evaluated as described previously with slight modifications. In brief, cells were pre-treated with the tested compounds or rasagiline at the indicated concentrations for 4 h. Next, they were exposed to 6-OHDA (50 μM) or rotenone (1 μM) for 24 h. In another set of experiments, the influence of HO-1 inhibitor, ZnPP, on the neuroprotective effects of the tested compounds against 6-OHDA-induced oxidative damage was investigated as previously reported. Briefly, the cells were pre-treated with the tested compounds for 4 h and then incubated with 0.2 µM of ZnPP for 30 min. Subsequently, 6-OHDA was added at a final concentration of 50 µM and incubated for 24 h.
After the desired treatment, cell viability was determined by MTT assay as described previously. Briefly, MTT was added to the cells at the final concentration of 0.5 mg/mL, which was followed by incubation for 3 h at 37 °C. […] The absorbance of the dissolved solution was measured at 550 nm using a microplate reader (SpectraMax M2^e, Molecular Devices, Sunnyvale, CA, USA). The cell viability was presented as the percentage of the absorbance measured in the vehicle-treated control cells.
Cell viabilities were measured by MTT assay.

PC12 cells [3] = assay: Neuroprotection against rotenone-induced toxicity in PC12 cells (MTT); details: Rattus norvegicus, PC-12, 24 h, read-out: IC50 of protection from rotenone-induced toxicity
Method: as §1
After the desired treatment, cell viability was determined by MTT assay as described previously. Briefly, MTT was added to the cells at the final concentration of 0.5 mg/mL, which was followed by incubation for 3 h at 37 °C. The supernatants were carefully removed, and then, 300 μL of DMSO was added to each well to dissolve formazan precipitate. The absorbance of the dissolved solution was measured at 550 nm using a microplate reader (SpectraMax M2^e, Molecular Devices, Sunnyvale, CA, USA). The cell viability was presented as the percentage of the absorbance measured in the vehicle-treated control cells.

Row | SMILES | Selectivity Index (SI) [1] | IC50 [1] | % Inhibition of MAO-B at 10 µM [1] | inhibition at 10 µM [1] | cytotoxic effects on PC12 cells (PC12 cells [2]) | IC50 (PC12 cells [3])
1 | O=C(Nc1ccc2[nH]ccc2c1)c1cccc(Cl)c1 [3n, 3-Chloro-N-(1H-indol-5-yl)benzamide] | >71 | 1.41 µM | 76.79 ± 0.27% | > 70% | did not show any significant cytotoxic effects | 1.4 µM
2 | O=C(Nc1ccc2[nH]ccc2c1)c1cccc(Br)c1 [3r, 3-Bromo-N-(1H-indol-5-yl)benzamide] | >109 | 0.91 µM | 87.00 ± 0.03% | > 70% | did not show any significant cytotoxic effects | 0.87 µM

From PMC8533333, “Melatonin Analogues Potently Inhibit MAO-B and Protect PC12 Cells against Oxidative Stress” (Antioxidants, 2021)
